Assays:
[1] = biological target: T1, Polyunsaturated fatty acid 5-lipoxygenase (Homo sapiens, UniProt P09917); test: (§1) Inhibition of 5-lipoxygenase mediated LTB4 synthesis in A-23187 simulated human whole blood; assay type: functional, tissue-based
T1 sequence (P09917 whole entry): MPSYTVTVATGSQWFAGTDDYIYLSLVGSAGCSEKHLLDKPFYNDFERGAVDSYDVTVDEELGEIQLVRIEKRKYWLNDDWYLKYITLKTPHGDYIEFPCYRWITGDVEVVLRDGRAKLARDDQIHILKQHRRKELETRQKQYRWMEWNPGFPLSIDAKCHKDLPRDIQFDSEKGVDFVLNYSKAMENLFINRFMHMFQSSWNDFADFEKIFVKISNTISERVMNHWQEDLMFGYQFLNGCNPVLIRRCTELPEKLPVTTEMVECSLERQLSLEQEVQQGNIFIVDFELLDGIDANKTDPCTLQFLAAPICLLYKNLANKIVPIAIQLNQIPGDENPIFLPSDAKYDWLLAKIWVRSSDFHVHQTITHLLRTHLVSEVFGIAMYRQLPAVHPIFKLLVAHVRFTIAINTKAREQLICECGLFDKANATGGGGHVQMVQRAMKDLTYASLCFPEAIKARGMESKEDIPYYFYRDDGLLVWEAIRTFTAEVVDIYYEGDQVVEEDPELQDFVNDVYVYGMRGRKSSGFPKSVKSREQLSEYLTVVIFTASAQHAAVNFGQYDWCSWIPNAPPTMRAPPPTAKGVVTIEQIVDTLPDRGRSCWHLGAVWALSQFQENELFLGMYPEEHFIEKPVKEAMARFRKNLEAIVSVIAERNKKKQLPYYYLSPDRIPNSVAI

[2] = biological target: T2, Polyunsaturated fatty acid 5-lipoxygenase (Mus musculus) (UniProt P48999); test: Inhibition of 5-lipoxygenase-mediated platelet activating factor induced thrombosis in male mice; assay type: functional
T2 sequence (whole entry): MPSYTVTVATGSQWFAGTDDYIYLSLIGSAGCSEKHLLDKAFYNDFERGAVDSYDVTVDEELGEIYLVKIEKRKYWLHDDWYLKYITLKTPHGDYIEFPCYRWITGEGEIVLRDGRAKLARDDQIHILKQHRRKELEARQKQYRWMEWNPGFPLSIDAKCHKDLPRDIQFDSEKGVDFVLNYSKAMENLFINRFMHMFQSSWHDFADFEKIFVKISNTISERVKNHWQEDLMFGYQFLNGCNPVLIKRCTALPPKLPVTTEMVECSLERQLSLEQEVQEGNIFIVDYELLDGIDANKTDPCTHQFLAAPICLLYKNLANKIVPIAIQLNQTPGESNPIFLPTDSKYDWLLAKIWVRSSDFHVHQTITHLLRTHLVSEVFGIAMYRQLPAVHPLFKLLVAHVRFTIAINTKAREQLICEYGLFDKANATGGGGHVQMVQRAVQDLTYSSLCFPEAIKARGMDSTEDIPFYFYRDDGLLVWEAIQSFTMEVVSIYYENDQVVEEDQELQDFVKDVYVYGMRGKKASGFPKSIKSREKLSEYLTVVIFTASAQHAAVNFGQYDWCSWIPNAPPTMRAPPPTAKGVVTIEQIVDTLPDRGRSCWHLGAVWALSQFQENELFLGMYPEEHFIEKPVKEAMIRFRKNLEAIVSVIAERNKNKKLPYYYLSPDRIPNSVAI

[3] = biological target: T3, Polyunsaturated fatty acid 5-lipoxygenase (Homo sapiens) (UniProt P09917); test: as §1; assay type: functional, tissue-based; settings: concentration not given here
T3 sequence (whole entry): T1 sequence (P09917 whole entry)

[4] = biological target: T3, Polyunsaturated fatty acid 5-lipoxygenase (Homo sapiens); test: Inhibition of 5-lipoxygenase mediated LTB4 synthesis in A-23187 simulated human whole blood at 1 uM concentration; assay type: functional, tissue-based
[5] = biological target: T3, Polyunsaturated fatty acid 5-lipoxygenase (Homo sapiens); settings: Blood, 1 uM

| Compound | IC50 [1] [nM] | ED50 [2] [mg/kg] | inhibition [3] [%] | inhibition [4] [%] | inhibition [5] [%] |
| --- | --- | --- | --- | --- | --- |
| Cc1nccn1Cc1ccc(Sc2cccc(C3(C(N)=O)CCOCC3)c2)cc1 | 140 | > 20 |  |  |  |
| Cc1cc(C)n(-c2ccc(Sc3cccc(C4(C(N)=O)CCOCC4)c3)cc2)n1 | > 1000 |  | -1 |  |  |
| NC(=O)C1(c2cccc(Sc3ccc(-n4cnnc4)cc3)c2)CCOCC1 | > 1000 |  |  | 1 |  |
| NC(=O)C1(c2cccc(Sc3ccc(Cn4cccc4)cc3)c2)CCOCC1 | 270 | 3 |  |  |  |
| CO/N=C/C1(c2cccc(Sc3ccc(-n4ccnc4C)cc3)c2)CCOCC1 | 150 | 2 |  |  |  |

The remaining lines, values ahead:

| IC50 [1] [nM] | ED50 [2] [mg/kg] | inhibition [3] [%] | inhibition [4] [%] | inhibition [5] [%] | Compound |
| --- | --- | --- | --- | --- | --- |
| 230 | 3.7 |  |  |  | Cc1nccn1-c1ccc(Sc2cccc(C3(C(N)=O)CCOCC3)c2)cc1 |
| > 1000 |  |  |  | -7 | Cc1nccn1-c1ccc(Sc2cccc(C3(C(N)=O)CC4CCC(C3)O4)c2)cc1 (stereo unspecified) |
| 830 | 7 |  |  |  | Cc1nccn1-c1ccc(Sc2cccc([C@]3(C(N)=O)CC4CC[C@H](C3)O4)c2)cc1 |

Source: ChEMBL document CHEMBL1145254, “5-Lipoxygenase inhibitors: convenient synthesis of 4-[3-(4-heterocyclylphenylthio)phenyl]-3,4,5,6-tetrahydro-2H-pyran-4-carboxamide analogues” (Bioorg Med Chem Lett, 2005)
